Reference: patent US10578610B2, “Peptide regulators of mitochondrial fusion and methods of use” (priority 2016, dated 2020)
Square brackets hold non-standard residues; d marks the D form. Ends that are not written are not given here. pS = N[C@@H](COP(=O)(O)O)C(=O)O

Assays:
[1] = tested on: murine embryonic fibroblasts (MEFs) expressing Mfn1 and/or Mfn2; assay: Mitochondrial aspect ratio and polarization in MEFs infected with adenovirus expressing Mfn2 HR1 peptides; assay type: cell-based; details: adenoviral expression; for mitochondrial aspect ratio (length/width; an index of mitochondrial fusion): MOI 100, WT and Mfn2 null MEFs, vs Ad-Null/β-gal control; for mitochondrial aspect ratio (elongation/shortening) compared with adeno-HR1 or Mfn deletion: WT, Mfn1 KO, Mfn2 KO, Mfn1/Mfn2 DKO MEFs; for mitochondrial polarization status: WT MEFs, TMRE
Description: The effect of each of the peptides listed in Table 1 on mitochondrial function was tested in a cell culture system using murine embryonic fibroblasts (MEFs) as described in Example 4. Wild-type MEFs express both Mfn1 and Mfn2. Also used were MEFs in which the Mfn2 gene was knocked out (MEF Mfn2 KO). The details of the experiments are provided in Example 3. In these experiments, the MEFs were infected with adenovirus (AV) engineered to express one of the peptides or full-length Mfn2 as a control. Mitochondrial fusion activity was measured using confocal microscopy and quantitative analysis of the mitochondrial aspect ratio which is a measurement of mitochondria length/width and is an accepted index of mitochondrial fusion. […] As with all confocal microscopic images provided herein, treated cells were stained to allow quantitative assessment of mitochondrial aspect ratio and polarization using methods routine in the art. In Examples 4-8, MitoTracker Green is used to stain the mitochondria to allow measurement of mitochondrial length and width to determine the aspect ratio. Red TMRE is used to measure mitochondrial polarization (membrane potential). Blue Hoechst stains nuclei.
Empty adenovirus (Ad-CMV-Null; #1300) and adenoviri expressing β-Galactosidase (Ad-CMV-b-Gal; #1080) or Cre recombinase (Ad-CMV-iCre; #1045) were from Vector Biolabs. Adenoviral expression vectors for hMfn2 HR1 and the minipeptides and Gly or Pro mutants were generated and amplified using standard methods. Adenoviral vectors were added to MEFs at 50% confluence at an MOI of 100.
(§1) MEFs or neurons were grown on chamber slides and infected with recombinant adenoviri for 48-72 hours unless otherwise indicated. MEFs were stained with MitoTracker Green (200 nM, Invitrogen M7514) and Blue Hoechst (10 mg/ml, Invitrogen H3570), with or without tetramethylrhodamine ethyl ester (TMRE; 200 nM, Invitrogen T-669). Neuronal mitochondria were labeled with adenoviral-expressed mitoGFP plus TMRE, or with adeno-mitoDsRed for time-lapse studies. Cover slips were loaded onto a chamber (Warner instrument, RC-40LP) in modified Krebs-Henseleit buffer (138 mM NaCl, 3.7 mM KCl, 1.2 mM KH2PO4, 15 mM Glucose, 20 mM HEPES and 1 mM CaCl2) at room temperature and visualized on a Nikon Ti Confocal microscope equipped with a 60×1.3 NA oil immersion objective. For mitophagy studies MEFs were stained with MitoTracker Green and infected with adeno-mcherry Parkin or stained with LysoTracker Deep Red (50 nM, Invitrogen L-7528); carbonylcyanide p-trifluoromethoxyphenylhydrazone (FCCP, 10 μM for 1 hour) was applied as a positive control. Mitochondrial fusion was measured at 2 and 6 hours after PEG-mediated cell fusion of MEFs treated 48 hours previously with adeno-mitoGFP or adeno-mitoDsRed (Chen et al., 2005, J Biol Chem, 280:26185-26192). Laser confocal fluorescence was excited with 561 nm (MitoTracker Green, GFP, FITC), 637 nm (TMRE, LysoTracker Red, mcherry-Parkin, MitoTracker Orange) or 408 nm (Blue Hoechst) laser diodes. Image analysis—Mitochondrial aspect ratio was calculated using automated edge detection and Image J software (Song et al., 2015, Cell Metab, 21:273-285). Mitochondrial depolarization was calculated as % of green mitochondria visualized on MitoTracker Green and TMRE merged images, expressed as green/(green+yellow mitochondria)×100. Parkin aggregation was calculated as % of cells with mitochondrial clumping of mcherry-Parkin (Song et al., 2015, Cell Metab, 21:273-285). Lysosomal engulfment of mitochondria was identified by colocalization of LysoTracker Red and MitoTracker Green (Song et al., 2015, Cell Metab, 21:273-285).
First, an adenovirus which recombinantly expressed the hMfn2 HR1 binding fragment (adeno HR1) was introduced into MEFs. It was reasoned that competition of the intra-molecular HR1-HR2 interaction by free HR1 fragment would increase mitochondrial fusion. […]

WT MEFs and Mfn2 KO MEFs = assay: Parkin recruitment and mitophagy induced by mitochondrial depolarization, adenoviral expression; assay type: cell-based, murine; details: data not shown
Description: as §1
Also studied were the effects of the adenoviral expression of WT Mfn2, HR1 peptide, adeno367-384 and its glycine variant and adeno398-418 and its glycine variant on Parkin recruitment and mitophagy induced by mitochondrial depolarization which are also impaced by the Mfn1 and Mfn2 proteins (Chen et al., 2013, Science, 340:471-475; Gong G. et al., 2015, Science, 350:aad2459). These studies were performed using WT MEFs and Mfn2 KO MEFs.

mitochondrial fusion = assay: Alanine scanning of TetherX-1 and Go-Fuse peptides, effect on mitochondrial fusion in cells; assay type: cell-based; details: variants linked to TAT carrier via GG linker; compared with SEQ ID NO:48 or 50
Description: Alanine scanning mutagenesis experiments were performed in order to identify amino acids critical for the function of the TetherX-1 and Go-Fuse peptides. Alanine was individually substituted for each amino acid in the Tetherx-1 and Go-Fuse peptides and the modified peptides, linked to the TAT carrier peptide via a GG linker, were administered to cells and the effect on mitochondrial fusion measured. Table 5 lists Go-Fuse variants which maintained fusion-promoting activity (activity similar to that of SEQ ID NO:48 or 50) while Table 6 lists variant Go-Fuse peptides in which substitutions had no effect (substitution of a non-critical amino acid).

WT MEFs = assay type: cell-based, murine; details: WT MEFs; varying concentrations / time course
Description: as §1
TAT47-57 is a well-characterized “carrier” peptide able to promote active cellular peptide uptake. Specifically, a linear peptide was constructed in which the hMfn2 modulatory peptide was linked by a peptide bond at its C-terminus to a Gly-Gly dipeptide linker whose C-terminus was linked by a peptide bond to the TAT47-57 peptide having the sequence YGRKKRRQRRR (SEQ ID NO:25). The resultant linear fusion-promoting peptide conjugate comprises the sequence […] (SEQ ID NO:23). The fusion-inhibiting linear peptide has the sequence […] (SEQ ID NO:24). Except for dose-response studies, stock concentrations of TAT-minipeptides in sterile water were applied to cultured MEFs at a dilution factor of 1:2000 to achieve final concentrations of 1 or 5 μM.
The functional consequences of the Mfn2 HR1-derived peptides were defined after synthesizing them as C-terminal TAT47-57 conjugates to promote active cellular uptake. Mitochondrial fusion can be detected by mixing of organellar contents (Chen et al., 2005, J Biol Chem, 280:26185-26192). […] (FIG. 8A, scale bar is 20 microns). Mitochondrial aspect ratio changed in parallel with mitochondrial mixing (FIG. 8B).
Experiments were performed with these shortened variants fused to a carrier peptide via a linker according to the methods described in Example 5 above. Wildtype MEFs were treated with varying concentrations of peptide fusion constructs described in Table 4 and mitochondrial aspect ratios determined. A dose response curve for TetherX-N and -C variants are shown in FIG. 17A (squares are data for TetherX-N and circles are for TetherX-C). The dose response curve for GoFuse-N and -C variants are shown in FIG. 17B (squares are for GoFuse-N and circles are for GoFuse-C).

With “FQNFERRFEECISQSAVKTKFEQHTVRAKQIAEAVRLIMDSLHMAAREQQVYCEEMREERQDRLKFIDKQLELLAQDYKLRIKQ [adeno-HR1]” the “mitochondrial aspect ratio (length/width; an index of mitochondrial fusion)” value [1] was “increased mitochondrial aspect ratio”, the “mitochondrial aspect ratio (elongation/shortening) compared with adeno-HR1 or Mfn deletion” value [1] was “altered mitochondrial aspect ratio” and the “Parkin recruitment and mitophagy induced by mitochondrial depolarization” value (“Parkin recruitment and mitophagy induced” for short) (WT MEFs and Mfn2 KO MEFs) was “No significant effects”.
For “GIMD(p)SLHMAARGGYGRKKRRQRRR (GIMD[pS]LHMAARGGYGRKKRRQRRR) [SEQ ID NO:54]”, the “fusion-promoting activity (Mfn agonist activity) of Go-Fuse variants” value (mitochondrial fusion) was “statistically active”.
For “QDRLKFIDKQGGYGRKKRRQRRR [TetherX-N, N-terminal fragment of TetherX-1 fused to TAT carrier, as tested]”, the “mitochondrial aspect ratio (effect of TAT fusion construct)” value (WT MEFs) was “exhibited little activity”.
For “QDRLKFIDKQLELLAQDYKLR (listed as Homo sapiens) [adeno398-418]”, the “Parkin recruitment and mitophagy induced” value (WT MEFs and Mfn2 KO MEFs) was “No significant effects”.
For GIMDSLHMAARGGYGRKKRRQRRR [GoFuse-C], the “mitochondrial aspect ratio (effect of TAT fusion construct)” value (WT MEFs) was “induced mitochondrial elongation”.
With “QIAEAVRGIMDSLHMAAR [adeno367-384Gly, Mfn2 HR1 minipeptide, expressed in cells from adenoviral vector]” the “mitochondrial aspect ratio (length/width; an index of mitochondrial fusion)” value [1] was “promoted fusion”, the mitochondrial polarization status [1] was “did not adversely impact mitochondrial polarization status” and the “mitochondrial aspect ratio (elongation/shortening) compared with adeno-HR1 or Mfn deletion” value [1] was “comparable to that produced by adeno-HR1”. For the same substance, the “Parkin recruitment and mitophagy induced” value (WT MEFs and Mfn2 KO MEFs) was “did not adversely impact”.
For “RQVSTAMAEEIRRLSVLVDDY (listed as Homo sapiens) [adeno428-448, non-HR1 control peptide]”, the “mitochondrial aspect ratio (length/width; an index of mitochondrial fusion)” value [1] was “did not affect mitochondrial fusion”.
GELLAQDYKLRGGYGRKKRRQRRR [TetherX-C] was tested, and the “mitochondrial aspect ratio (effect of TAT fusion construct)” value (WT MEFs) was “provoked mitochondrial fragmentation”.
For “QIAEAVRGGYGRKKRRQRRRR [GoFuse-N, N-terminal fragment of GoFuse-1 fused to TAT carrier, as tested]”, the “mitochondrial aspect ratio (effect of TAT fusion construct)” value (WT MEFs) was “lacked fusion-promoting activity”.
With “QIAEAVRLIMDSLHMAAR (listed as Homo sapiens) [adeno367-384]” the “Parkin recruitment and mitophagy induced” value (WT MEFs and Mfn2 KO MEFs) was “No significant effects”.
For “QDRLKFIDKQGELLAQDYKLR [adeno398-418Gly, Mfn2 HR1 minipeptide, expressed in cells from adenoviral vector]”, the “mitochondrial aspect ratio (length/width; an index of mitochondrial fusion)” value [1] was “potently suppressed fusion”, the mitochondrial polarization status [1] was “did not adversely impact mitochondrial polarization status” and the “Parkin recruitment and mitophagy induced” value (WT MEFs and Mfn2 KO MEFs) was “did not adversely impact”.
